According to PMC9458059, “Design, Synthesis and Biological Evaluation of New Carbohydrate-Based Coumarin Derivatives as Selective Carbonic Anhydrase IX Inhibitors via “Click” Reaction” (Molecules, 2022):
Read-outs that look alike come from different tables or passages of the source.

Key:
HT-29 cells = test: Cell viability MTT assay, HT-29; format: cell-based; conditions: Homo sapiens
Protocol: (§1) In the present study, the potential cytotoxicity of compounds 10a–10p was evaluated in vitro by MTT assay. […] So, half of each cell line were subjected to hypoxic conditions (0.5% O2, 5% CO2 and 94.5% N2) for inducing the expression of CA IX and the other half were incubated under normal conditions (normoxia). Subsequently, all synthesized derivatives were screened at a concentration of 100 μM to test their cytotoxicity in mentioned above cells.
(§2) The two human cancer cell lines were cultivated for 24 h at 37 °C in a 96-well plate. Subsequently, different concentrations of inhibitors were added to 96-well plate and then was incubated for 96 hours. After the MTT solution was added to per well, cancer cells were further incubated for 4 h at 37 °C. Finally, formazan crystals were dissolved by using DMSO. The cancer cells were from American Type Culture Collection.

MDA-MB-231 cells = test: Cell viability MTT assay, MDA-MB-231; format: cell-based; conditions: Homo sapiens
Protocol: as §1, §2

hCA I = biological target: T1, hCA I (Homo sapiens, UniProt P00915); test: CA inhibition by the esterase assay, hCA I; format: biochemical; conditions: human recombinant enzyme, 4-nitrophenylacetate as substrate
T1 construct: purchased
Protocol: (§3) The esterase assay was used for testing the inhibitory activities of target compounds against carbonic anhydrases. […] Next, the stock solution of inhibitor was diluted to the specified concentration by using analysis buffer. […] In addition, the purchased CA was diluted with analysis buffer and added to 96-well plates. Next, different concentrations of inhibitors were also added to 96-well plates. To form the inhibitors and enzymes complex, E-I solutions were preincubated together for 4 h before the test at room temperature. Meanwhile, the nonenzymatic hydrolysis rates were tested by the blank control experiments. The absorbances were determined by using multifunctional enzyme marking instrument.

hCA II = hCA II (Homo sapiens, UniProt P00918); test: CA inhibition by the esterase assay, hCA II; format: biochemical; conditions: human recombinant enzyme, 4-nitrophenylacetate as substrate
Protocol: as §3

hCA IX = biological target: T2, hCA IX (Homo sapiens, UniProt Q16790); test: CA inhibition by the esterase assay, hCA IX; format: biochemical; conditions: for IC50: human recombinant enzyme, esterase assay, 4-nitrophenylacetate as substrate; for Selectivity Ratio hCA I/hCA IX / Selectivity Ratio hCA II/hCA IX: ratio of IC50 values
T2 construct: purchased
Protocol: as §3

[1] = Metabolic stability in mouse liver microsomes; conditions: mouse, liver microsomes
[2] = hypoxia (0.5% O2, 5% CO2 and 94.5% N2), read-out: Cell Viability (%) HT-29 Hypoxia
[3] = normoxia, read-out: Cell Viability (%) HT-29 Normoxia
[4] = hypoxia (0.5% O2, 5% CO2 and 94.5% N2), read-out: Cell Viability (%) MDA-MB-231 Hypoxia
[5] = normoxia, read-out: Cell Viability (%) MDA-MB-231 Normoxia

T1 sequence (P00915 whole entry): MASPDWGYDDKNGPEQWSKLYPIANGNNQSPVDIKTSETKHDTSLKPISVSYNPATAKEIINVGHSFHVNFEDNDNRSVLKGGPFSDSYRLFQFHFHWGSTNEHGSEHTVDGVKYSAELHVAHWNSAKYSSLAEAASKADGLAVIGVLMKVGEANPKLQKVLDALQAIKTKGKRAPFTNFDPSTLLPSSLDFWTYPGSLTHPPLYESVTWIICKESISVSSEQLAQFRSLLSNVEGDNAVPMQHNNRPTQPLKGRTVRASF

Compound	viability at 100 µM (HT-29 cells; [2]) [%]	viability at 100 µM (HT-29 cells; [3]) [%]	viability at 100 µM (MDA-MB-231 cells; [4]) [%]	viability at 100 µM (MDA-MB-231 cells; [5]) [%]	IC50 (hCA I) [µM]	IC50 (hCA II) [µM]	IC50 (hCA IX) [µM]	Selectivity Ratio hCA I/hCA IX (hCA IX)	Selectivity Ratio hCA II/hCA IX (hCA IX)	CLint scaled at 1 μM [1] [mL/min/kg]	half-life at 1 μM [1] [h]	melting point [°C]
CC(=O)Nc1nnc(S(N)(=O)=O)s1 [AAZ, acetazolamide, reference compound]	80.1	85.2	80.3	84.7								
O=c1ccc2ccc(OCc3cn([C@@H]4O[C@H](CO)[C@H](O)[C@H](O)[C@H]4O)nn3)cc2o1 [Compound 10b, 7-[(1-β-. D-galactopyranosyl-1H-1,2,3-triazol-4-yl)methoxy]-2H-chromen-2-one]	48.7	50.5	33.7	61.4	24.3	31.3	0.074	328	423	4.33	21.1	
N[C@@H]1[C@@H](O)[C@H](O)[C@@H](CO)O[C@H]1n1cc(COc2ccc3ccc(=O)oc3c2)nn1 [Compound 10d, 7-[(1-β-. D-glucosaminogly-1H-1,2,3-triazol-4-yl)methoxy]-2H-chromen-2-one]	45.6	57	38.9	60.2	51.5	32.8	0.057	904	575	4.26	21.5	131.3 to 134.2
O=c1ccc2ccc(OCc3cn([C@@H]4OC[C@@H](O)[C@H](O)[C@H]4O)nn3)cc2o1 [Compound 10e, 7-[(1-β-. D-xylopyranosyl-1H-1,2,3-triazol-4-yl)methoxy]-2H-chromen-2-one]	39.5	49.3	42.9	58.2	42.3	21	0.061	693	344	4.04	22.6	128.4 to 130.6
O=c1ccc2ccc(OCc3cn([C@@H]4OC[C@H](O)[C@H](O)[C@H]4O)nn3)cc2o1 [Compound 10f, 7-[(1-β-. L-arabinopyranosyl-1H-1,2,3-triazol-4-yl)methoxy]-2H-chromen-2-one]	38.1	48.7	33.8	65.6	65.6	31.7	0.042	1562	755	3.75	24.4	133.1 to 135.1
C[C@@H]1O[C@H](n2cc(COc3ccc4ccc(=O)oc4c3)nn2)[C@H](O)[C@H](O)[C@H]1O [Compound 10g, 7-[(1-β-. L-rhamnosyl-1H-1,2,3-triazol-4-yl)methoxy]-2H-chromen-2-one]	38.7	42.4	36.1	53.2	36.5	31.6	0.124	294	255	3.65	25	126.1 to 129.6
Cc1cc(=O)oc2cc(OCc3cn([C@@H]4O[C@H](CO)[C@@H](O)[C@H](O)[C@H]4O)nn3)ccc12 [Compound 10i, 7-[(1-β-. D-glucopyranosyl-1H-1,2,3-triazol-4-yl)methoxy]-4-methyl-2H-chromen-2-one]	42.6	48.5	33.2	65.2	32.1	14	0.084	382	167	3.83	23.9	127.9 to 130.2
Cc1cc(=O)oc2cc(OCc3cn([C@@H]4O[C@H](CO)[C@H](O)[C@H](O)[C@H]4O)nn3)ccc12 [Compound 10j, 7-[(1-β-. D-galactopyranosyl-1H-1,2,3-triazol-4-yl)methoxy]-4-methyl-2H-chromen-2-one]	46.4	60.2	40.9	64.7	44.1	16.1	0.098	450	164	3.5	26.1	124.2 to 126.6
Cc1cc(=O)oc2cc(OCc3cn([C@@H]4O[C@H](CO)[C@@H](O)[C@H](O)[C@@H]4O)nn3)ccc12 [Compound 10k, 7-[(1-β-. D-mannopyranosyl-1H-1,2,3-triazol-4-yl)methoxy]-4-methyl-2H-chromen-2-one]	40.3	52.3	33.7	61.3	49	23	0.042	1167	548	3.25	28.1	121.5 to 122.6
Cc1cc(=O)oc2cc(OCc3cn([C@@H]4O[C@H](CO)[C@@H](O)[C@H](O)[C@H]4N)nn3)ccc12 [Compound 10l, 7-[(1-β-. D-glucosaminogly-1H-1,2,3-triazol-4-yl)methoxy]-4-methyl-2H-chromen-2-one]	44.8	51.2	38.5	65.1	56.9	31.4	0.032	1778	981	3.07	29.8	126.2 to 128.4
Cc1cc(=O)oc2cc(OCc3cn([C@@H]4OC[C@@H](O)[C@H](O)[C@H]4O)nn3)ccc12 [Compound 10m, 7-[(1-β-. D-xylopyranosyl-1H-1,2,3-triazol-4-yl)methoxy]-4-methyl-2H-chromen-2-one]	35.5	40.5	39.8	53.2	43.9	22.6	0.067	655	337	3.38	27.1	122.4 to 123.9
